Values joined by “and” are separate entries in the source; they are usually repeats but may differ in a detail not shown here. Equal values may be shown once. Blank lines part the entries; values can stand above or below the molecule they belong to.
Columns and labels:
α2-3 sialyltransferase = molecular target: T1, α2-3 sialyltransferase (Sus scrofa, UniProt Q02745); assay: Incorporation of radio-labelled CMP-NANA into glycolipid acceptors by α2-3 sialyltransferase; assay type: biochemical, porcine
T1 construct: from porcine liver; from tissue; host or cells: porcine liver
T1 sequence (Q02745 1-343): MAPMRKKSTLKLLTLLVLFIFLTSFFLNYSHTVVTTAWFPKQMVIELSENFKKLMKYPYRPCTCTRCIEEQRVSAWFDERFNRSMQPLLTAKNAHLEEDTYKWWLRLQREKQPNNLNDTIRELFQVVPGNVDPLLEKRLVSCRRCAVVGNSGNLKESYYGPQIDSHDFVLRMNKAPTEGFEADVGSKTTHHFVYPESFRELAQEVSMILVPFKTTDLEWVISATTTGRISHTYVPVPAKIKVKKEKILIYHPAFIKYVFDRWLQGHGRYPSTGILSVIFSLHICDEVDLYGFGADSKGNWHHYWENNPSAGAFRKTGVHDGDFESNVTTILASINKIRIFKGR
Procedure: (§1) Various glycolipids have been incubated with α2-3 and α2-6 sialyltransferases (from porcine and rat liver) in the presence of radio-labelled CMP-NANA. […] Other glycolipids could accept NANA, but in relatively low yields.
However, this transferase should be able to use glycolipid (54) as an acceptor.

α2-6 sialyltransferase = molecular target: T2, α2-6 sialyltransferase (Rattus norvegicus, UniProt P13721); assay: Incorporation of radio-labelled CMP-NANA into glycolipid acceptors by α2-6 sialyltransferase; assay type: biochemical
T2 construct: (from porcine and rat liver); from tissue; host or cells: rat liver
T2 sequence (P13721 1-403): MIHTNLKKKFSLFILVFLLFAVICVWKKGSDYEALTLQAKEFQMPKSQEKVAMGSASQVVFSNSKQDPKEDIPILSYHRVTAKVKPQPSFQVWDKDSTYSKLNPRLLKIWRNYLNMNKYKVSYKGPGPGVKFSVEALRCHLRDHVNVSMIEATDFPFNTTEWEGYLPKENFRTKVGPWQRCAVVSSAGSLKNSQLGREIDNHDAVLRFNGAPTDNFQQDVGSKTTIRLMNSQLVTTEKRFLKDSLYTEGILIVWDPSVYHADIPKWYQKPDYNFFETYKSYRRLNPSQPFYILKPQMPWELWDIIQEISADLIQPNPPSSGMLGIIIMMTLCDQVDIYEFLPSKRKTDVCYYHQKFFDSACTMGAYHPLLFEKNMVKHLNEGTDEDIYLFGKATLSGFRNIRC
Procedure: as §1

galactosyltransferase = assay: Test as substrate for galactosyltransferase; assay type: biochemical, bovine; settings: with and without the detergent Triton CF-54
Procedure: Compound (28): The acceptor (27) (16.5 mg, 31.2 μmol) was sonicated carefully for 15 min in 39 μl of 40 mM MnCl2, 93 μl of 50 mM NaN3, 102 μl and 330 μl of sodium cacodylate buffer pH 7.4 100 mM and 50 mM respectively. Then 35 μl of 2% BSA, 5.5 μl (5.5 U) of 1 U/μl calf intestinal alkaline phosphatase, 143 μl (1.92 U) of 6.7 U/500 μl UDP-Glc 4--epimerase, 29 μl (487 mU) of 8.4 U/500 μl galactosyl-transferase and 21.9 mg (37.9 μmol, 1.2 eq.) of UDP-Glc were added. The final concentrations were as follows: [Acceptor]=40 mM, [UDP-Glc]=49 mM, [MnCl2 ]=2 mM, [NAN3 ]=6 mM, [Sodium cacodylate]=50 mM.
The GlcNAc ceramide (40) has been tested as a substrate for the galactosyltransferase with and without the addition of the detergent Triton CF-54. No conversion was obtained.

[1] = molecular target: T3, α1-3 fucosyl transferase VI (Homo sapiens, UniProt P51993); assay: Test as substrate for α1-3 fucosyl transferase VI with radio-labelled GDP-[14C]fucose; assay type: biochemical; settings: for Competition for incorporation of fucose into lipid (acceptor quality): 0.2 mM (28) with 0 to 2 mM N-acetyllactosamine; for Percentage of fucose transferred: 0.5 mU fucosyl transferase, 1 hour
T3 sequence (P51993 1-359): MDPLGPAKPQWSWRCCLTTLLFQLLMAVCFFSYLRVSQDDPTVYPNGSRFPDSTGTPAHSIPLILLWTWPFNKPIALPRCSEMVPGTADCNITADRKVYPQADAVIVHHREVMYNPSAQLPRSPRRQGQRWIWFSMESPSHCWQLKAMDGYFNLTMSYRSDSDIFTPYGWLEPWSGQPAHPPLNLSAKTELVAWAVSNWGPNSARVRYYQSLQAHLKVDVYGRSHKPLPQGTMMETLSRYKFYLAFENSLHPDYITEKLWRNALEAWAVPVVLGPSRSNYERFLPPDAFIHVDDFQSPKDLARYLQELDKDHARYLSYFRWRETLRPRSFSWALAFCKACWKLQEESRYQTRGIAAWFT
Procedure: The acceptor (28) was tested as a substrate for α1-3 fucosyl transferase VI, by incubation with the enzyme and radio-labelled GDP-[^14 C]fucose. The reaction conditions were: 45 mM Mes pH 6.5; 27 μM GDP-Fuc; 0.1% BSA; 0.1 mM NaCl; 5 mM MnCl2; 5 mM MgCl2; incubation at 37° C.). The reaction mixture was passed through a Sep-Pak C18 cartridge which was washed with 0.2M NaCl to ensure separation of all hydrophilic material. The lipid fraction was then eluted with MeOH. The incorporation of radioactivity into lipids was measured by scintillation counting.
In a first experiment, the transfer was monitored with time, using 0.2 mM (28) and 0.1 mU fucosyltransferase/100 μl incubation, and compared to a control incubation containing no acceptor. […] In a further experiment, but using 0.5 mU fucosyl transferase over 1 hour, the transfer of fucose was measured at 0.2, 1, 5 and 24 mM concentrations of (28). The percentage of fucose transferred was respectively about 50%, 60%, 65% and 70%.
Competition experiments were also carried out, using 0.2 mM acceptor (28), in the presence of various concentrations (0 to 2 mM) of N-acetyllactosamine which is a known substrate for the enzyme. The samples were analysed as before, for incorporation of fucose into lipid.

[2] = acceptor conc. 12 mM, bracketed numbers are background

SMILES: CCCCCCCCCCCCC/C=C/[C@@H](O)[C@@H](N)CO[C@@H]1O[C@H](CO)[C@@H](O[C@@H]2O[C@H](CO)[C@H](O)[C@H](O)[C@H]2O)[C@H](O)[C@H]1O [(1)]
α2-3ST yield (%) of incorporation of radio-labelled CMP-NANA (α2-3 sialyltransferase; acceptor conc. 12 mM): 1.5% | α2-3ST yield (%) of incorporation of radio-labelled CMP-NANA (α2-3 sialyltransferase; acceptor conc. 100 mM): 2.4% and 2.5%

SMILES: CCCCCCCCCCCCC/C=C/[C@@H](O)[C@H](CO[C@@H]1O[C@H](CO)[C@@H](O)[C@H](O)[C@H]1NC(C)=O)N=[N+]=[N-] [(27)]
Conversion (galactosylation) by galactosyltransferase (galactosyltransferase): galactosylated

SMILES: CC(=O)N[C@H]1C(O)O[C@H](CO)[C@@H](O[C@@H]2O[C@H](CO)[C@H](O)[C@H](O)[C@H]2O)[C@@H]1O (stereo partly drawn) [N-acetyllactosamine, reference compound]
Competition for incorporation of fucose into lipid (acceptor quality) [1]: similarly good acceptors

SMILES: CCCCCCCCCCCCC/C=C/[C@@H](O)[C@H](CO[C@@H]1O[C@H](CO)[C@@H](O[C@@H]2O[C@H](CO)[C@H](O)[C@H](O)[C@H]2O)[C@H](O)[C@H]1O)NC(=O)CCCCCCCCCCCCCCCCC [lactosyl-ceramide, Lactosylceramide, reference compound]
α2-6 ST yield (%) of incorporation of radio-labelled CMP-NANA (α2-6 sialyltransferase; acceptor conc. 43 mM): 2.7% | Transfer by α2-3 sialyltransferase / acceptor substrate (in words) (α2-3 sialyltransferase; α2-3 sialyltransferase from porcine liver): not an acceptor substrate

Further lines, with some results ahead:

α2-6 ST yield (%) of incorporation of radio-labelled CMP-NANA (α2-6 sialyltransferase; [2]): 2.9% and 2.8% | α2-3ST yield (%) of incorporation of radio-labelled CMP-NANA (α2-3 sialyltransferase; acceptor conc. 100 mM): 2.5%
SMILES: CCCCCCCCCCCCC/C=C/[C@@H](O)[C@H](CO[C@@H]1O[C@H](CO)[C@@H](O[C@@H]2O[C@H](CO)[C@H](O)[C@H](O)[C@H]2O)[C@H](O)[C@H]1O)N=[N+]=[N-] [(20)]

α2-6 ST yield (%) of incorporation of radio-labelled CMP-NANA (α2-6 sialyltransferase; acceptor conc. 6 mM, bracketed numbers are background): 22.2% | α2-6 ST yield (%) of incorporation of radio-labelled CMP-NANA (α2-6 sialyltransferase; [2]): 23.2% | α2-6 ST yield (%) of incorporation of radio-labelled CMP-NANA (α2-6 sialyltransferase; acceptor conc. 50 mM, bracketed numbers are background): 47.0% | α2-6 ST yield (%) of incorporation of radio-labelled CMP-NANA (α2-6 sialyltransferase; acceptor conc. 100 mM, bracketed numbers are background): 59.8% | α2-3ST yield (%) of incorporation of radio-labelled CMP-NANA (α2-3 sialyltransferase; acceptor conc. 6 mM): 1.1% | α2-3ST yield (%) of incorporation of radio-labelled CMP-NANA (α2-3 sialyltransferase; acceptor conc. 100 mM): 1.5% and 1.2% | Competition for incorporation of fucose into lipid (acceptor quality) [1]: similarly good acceptors | Percentage of fucose transferred ([1]; 0.2 mM acceptor): about 50% | Percentage of fucose transferred ([1]; 1 mM acceptor): ~60% | Percentage of fucose transferred ([1]; 5 mM acceptor): ~65% | Percentage of fucose transferred ([1]; 24 mM acceptor): ~70%
SMILES: CCCCCCCCCCCCC/C=C/[C@@H](O)[C@H](CO[C@@H]1O[C@H](CO)[C@@H](O[C@@H]2O[C@H](CO)[C@H](O)[C@H](O)[C@H]2O)[C@H](O)[C@H]1NC(C)=O)N=[N+]=[N-] [(28)]
Incorporation of label into lipid monitored with time ([1]; 0.2 mM acceptor, 0.1 mU fucosyltransferase/100 μl, vs control without acceptor): incorporation of label into lipid above background

Conversion (galactosylation) by galactosyltransferase (galactosyltransferase): No conversion
SMILES: CCCCCCCCCCCCC/C=C/[C@@H](O)[C@H](CO[C@@H]1O[C@H](CO)[C@@H](O)[C@H](O)[C@H]1NC(C)=O)NC(=O)CCCCCCCCCCCCCCCCCCCCCCC [(40), GlcNAc ceramide]
